According to patent US20180305299A1, “N-(2-FLUORO-2-PHENETHYL)CARBOXAMIDES AS NEMATICIDES AND ENDOPARASITICIDES” (priority 2013, published 2018):
Structures can show the parent of a compound that is named as a salt. Where two headings read alike, the source gives them in different places.

Legend:
[1] = log P (HPLC-MS); format: physicochemical
[2] = tested on: Cooperia curticei; test: Cooperia curticei test (COOPCU), larval mortality; settings: 120 h; for Emax at 0.8 ppm: read-out: % Efficacy COOPCU; for mortality at 20 ppm: read-out: activity (larval mortality, efficacy)
Method: Cooperia curticei—Test (COOPCU)
(§1) Solvent: dimethyl sulfoxide
(§2) To produce a suitable preparation of active compound, 10 mg of active compound are dissolved in 0.5 ml solvent, and the concentrate is diluted with “Ringer's solution” to the desired concentration.
Approximately 40 nematode larvae (Cooperia curticei) are transferred into a test tube containing the compound solution.
After 5 days percentage of larval mortality is recorded. 100% efficacy means all larvae are killed; 0% efficacy means no larvae are killed.
Cooperia curticei—Test (COOPCU) Solvent: dimethyl sulfoxide

[3] = tested on: Meloidogyne incognita; test: Meloidogyne incognita test (MELGIN), comparison example, solvent dimethylformamide with emulsifier; format: in vivo; settings: 504 h, 21 dat, read-out: % Efficacy MELGIN
Method: (§3) Meloidogyne incognita—Test (MELGIN)
To produce a suitable preparation of active compound, 1 part by weight of active compound is mixed with the stated amount of solvent, and the concentrate is diluted with emulsifier-containing water to the desired concentration.
Vessels are filled with sand, a solution of the active ingredient, a suspension containing eggs and larvae of Meloidogyne incognita and salad seeds. The salad seeds germinate and the seedlings grow. Galls develop on the roots.
After the specified period of time the nematicidal activity is determined on the basis of the percentage of gall formation. 100% means that no galls were found; 0% means that the number of galls found on the roots of the treated plants was equal to that in untreated control plants.

[4] = tested on: Haemonchus contortus; test: Haemonchus contortus test (HAEMCO), larval mortality; settings: 120 h; for Emax at 0.8 ppm: 5 dat, read-out: % Efficacy HAEMCO; for mortality at 20 ppm: application rate 20 ppm, after 5 days, read-out: activity (larval mortality, efficacy)
Method: Haemonchus contortus—Test (HAEMCO)
as §1, §2
Approximately 40 larvae of the red stomach worm (Haemonchus contortus) are transferred into a test tube containing compound solution.
After 5 days percentage of larval mortality are recorded. 100% efficacy means all larvae are killed, 0% efficacy means no larvae are killed.
Haemonchus contortus—Test (HAEMCO) Solvent: dimethyl sulfoxide

[5] = tested on: Heligmosomoides polygyrus; test: Heligmosomoides polygyrus/mouse in vivo efficacy test; settings: mice; oral; four consecutive days during early patency; dose not given
Method: Heligmosomoides polygyrus/mouse
Mice, experimentally infected by Heligmosomoides polygyrus, were treated on four consecutive days during early patency. Test compounds were formulated as solutions or suspensions and applied orally.
Efficacy was determined as reduction of worm count in the intestine after necropsy compared to worm count in an infected and placebo-treated control group.

[6] = tested on: Meloidogyne incognita; test: Meloidogyne incognita test (MELGIN), gall formation, solvent acetone; format: in vivo; settings: application rate 20 ppm; after 14 days
Method: as §3
To produce a suitable preparation of active compound, 1 part by weight of active compound is mixed with the stated amount of solvent, and the concentrate is diluted with water to the desired concentration.
Vessels are filled with sand, a solution of the active ingredient, a suspension containing eggs and larvae of the southern root-knot nematode (Meloidogyne incognita) and salad seeds. The salad seeds germinate and the seedlings grow. Galls develop in the roots.
After 14 days the nematicidal activity is determined on the basis of the percentage of gall formation. 100% means that no galls were found; 0% means that the number of galls found on the roots of the treated plants was equal to that in untreated control plants.

Q: Which chromatographic logP [1] does the source give for `CC(F)(CN)c1ccc(Cl)cc1Cl` (stereo not drawn) [2-(2,4-dichlorophenyl)-2-fluoropropan-1-amine hydrochloride] here?
A: 0.89

Q: Which Emax at 0.8 ppm [2] does the source give for `O=C(NCC(F)(F)c1ccc(Cl)cc1Cl)c1ccccc1C(F)(F)F` [Example 1-1, N-[2-(2,4-dichlorophenyl)-2,2-difluoroethyl]-2-(trifluoromethyl)benzamide] here?
A: 100%

Q: And the mortality at 20 ppm [2]?
A: 100%

Q: And the Emax at 2 ppm [3]?
A: 95%

Q: And the Emax at 0.8 ppm [4]?
A: 100%

Q: What about the mortality at 20 ppm [4] of the same compound?
A: 100%

Q: And the “activity (reduction of worm count in the intestine vs placebo-treated control)” value [5]?
A: 65%

Q: And the “activity (nematicidal, gall formation)” value [6]?
A: 100%

Q: What does the source list for `CC(Cc1ccc(Cl)cc1Cl)NC(=O)c1ccccc1C(F)(F)F` (stereo not drawn) [Example 1-32 known from WO-A 2012/118139, reference compound]?
A: Emax at 0.8 ppm ([2]; 0.8 ppm, 5 dat): 0%; Emax at 2 ppm [3]: 15%; Emax at 0.8 ppm [4]: 80%

Q: For `CC(F)(CNC(=O)c1ccccc1C(F)(F)F)c1ccc(Cl)cc1Cl` (stereo not drawn) [Example 1-393, N-[2-(2,4-dichlorophenyl)-2-fluoropropyl]-2-(trifluoromethyl)benzamide], which mortality at 20 ppm [2] is on record?
A: 100%

Q: And the mortality at 20 ppm [4]?
A: 100%

Q: What about the “activity (nematicidal, gall formation)” value [6] of the same compound?
A: 100%

Q: For `O=C(NCC(F)c1ccccc1C(F)(F)F)c1ccccc1C(F)(F)F` (stereo not drawn) [Example 1-399, N-{2-fluoro-2-[2-(trifluoromethyl)phenyl]ethyl}-2-(trifluoromethyl)benzamide], which mortality at 20 ppm [4] is on record?
A: 100%

Q: With `O=C(NCC(F)c1ccccc1Cl)c1ccccc1C(F)(F)F` (stereo not drawn) [Example 1-400, N-[2-(2-chlorophenyl)-2-fluoroethyl]-2-(trifluoromethyl)benzamide] as the compound, how does the mortality at 20 ppm [4] read?
A: 100%

Q: With `CC(F)(CNC(=O)c1ccccc1C(F)(F)F)c1ccc(Cl)cc1Cl` (stereo not drawn) [Example 1-406, N-[2-(2,4-dichlorophenyl)-2-fluoropropyl]-2-(trifluoromethyl)benzamide] as the compound, how does the chromatographic logP [1] read?
A: 3.7

Q: What about the “activity (nematicidal, gall formation)” value [6] of the same compound?
A: 100%
